The source of these data is ChEMBL document CHEMBL2062380, “Discovery of a novel pyrrole derivative 1-[5-(2-fluorophenyl)-1-(pyridin-3-ylsulfonyl)-1H-pyrrol-3-yl]-N-methylmethanamine fumarate (TAK-438) as a potassium-competitive acid blocker (P-CAB)” (J Med Chem, 2012).

Data set [1] can be described thus: Lipophilicity, log D of compound at pH 7.4. The class given is physicochemical. The following applies: buffer.
Data set [2] can be described thus: Inhibition of swine H+/K+-ATPase after 30 mins by colorimetry. More on the design: species or system Sus scrofa.
Data set [3] has as its system Rattus norvegicus. Put plainly: Inhibition of histamine-induced gastric acid secretion in pylorus-ligated Sprague Dawley rat at 1 mg/kg, iv administered 3 mins prior to histamine challenge measured after 3 hrs. The class given is functional. The following applies: Stomach.
Data set [4] relates to Rattus norvegicus. Nature of the data set: Inhibition of histamine-induced gastric acid secretion in pylorus-ligated Sprague-Dawley rat at 8 mg/kg, po measured after 3 hrs post histamine challenge. The class given is functional, organism-based. More on the design: dose 8 mg/kg. The following applies: Stomach.
Data set [5] has as its system Canis familiaris. Nature of the data set: Inhibition histamine-induced gastric acid secretion in Heidenhain-pouch dog at 1 mg/kg, po administered 1 tp 48 hrs prior histamine challenge measured for 3 consecutive 30 mins time period after compound dosing. It is filed as functional, organism-based. More on the design: dose 1 mg/kg. The following applies: Canis lupus familiaris, Stomach.

Data set [6] has as its system Rattus norvegicus. Put plainly: Inhibition of histamine-induced gastric acid secretion in po dosed pylorus-ligated Sprague-Dawley rat measured after 3 hrs post histamine challenge. The following applies: Stomach. The class given is functional, organism-based.
In data set [7] the test system is Rattus norvegicus. Nature of the data set: Complete inhibition of histamine-induced gastric acid secretion in pylorus-ligated Sprague Dawley rat at 4 mg/kg, po measured after 3 hrs post histamine challenge. It is filed as functional, organism-based. More on the design: dose 4 mg/kg. The following applies: Stomach.
Data set [8] relates to Canis familiaris. Nature of the data set: Inhibition histamine-induced gastric acid secretion in Heidenhain-pouch dog at 1 mg/kg, po administered 1 day post histamine challenge measured for 3 consecutive 30 mins time period after compound dosing. The class given is functional, organism-based. More on the design: dose 1 mg/kg. The following applies: Canis lupus familiaris, Stomach.

Data set [9] has as its system Canis familiaris. Put plainly: Inhibition histamine-induced gastric acid secretion in Heidenhain-pouch dog at 1 mg/kg, po measured after 2 days. It is filed as functional, organism-based. More on the design: dose 1 mg/kg. The following applies: Canis lupus familiaris, Stomach.

Counter-ions that a name gives are not always drawn. Active and inactive are the calls of the source. The calls are words filed in the database; no cut-off is given here.

In data set [1], `CNCc1cc(-c2ccccc2)n(S(=O)(=O)c2ccc(OC)nc2)c1` yielded a logD of 1.7. Also, the IC50 in data set [2] was 13 nM. Also, in the data set with Rattus norvegicus [3], at 1 mg/kg the inhibition in vivo was 95%.
Turning to `CNCc1cc(-c2ccccc2C)n(S(=O)(=O)c2cccnc2)c1`, in data set [1], the logD turned out to be 1. Moreover, the IC50 in data set [2] is 46 nM. This molecule also gave an inhibition in vivo at 1 mg/kg in the data set on Rattus norvegicus [3] of 95%.
In the same order, the values of `CNCc1cc(-c2cccc(F)c2)n(S(=O)(=O)c2cccnc2)c1` are 1, 20 nM and 92%.
Regarding `CNCc1cc(-c2ccccc2)n(S(=O)(=O)c2cccc(OC)c2)c1`, inhibition in data set [2] was half-maximal at 11 nM (IC50).
Molecule `CNCc1cc(-c2ccccc2)n(S(=O)(=O)c2ccc(C)nc2)c1` displayed a logD in [1] of 1. Further, half-maximal inhibition in data set [2] (IC50) required 34 nM. This molecule also registered an inhibition in vivo at 1 mg/kg with Rattus norvegicus [3] of 83%.
The like results for `CNCc1cc(-c2ccc(F)cc2)n(S(=O)(=O)c2cccnc2)c1` were, in that order, 1, 46 nM and 85%.
Take `Cc1c(OCC(F)(F)F)ccnc1C[S+]([O-])c1nc2ccccc2[nH]1` (stereo not drawn): the inhibition entry in the data set with Rattus norvegicus [4] is “inactive”. The inhibition entry in the data set with Canis familiaris [5] is “Active”.
`CNCc1cc(-c2ccccc2)n(S(=O)(=O)c2cccc(S(C)(=O)=O)c2)c1`: in data set [2], the IC50 came out at 78 nM.
`CNCc1cc(-c2ccccc2)n(S(=O)(=O)c2ccc(OC)cc2)c1` gave a log distribution coefficient (logD) in data set [1] of 1.5. In data set [2], this molecule gave an IC50 of 30 nM. Further, the inhibition in vivo at 1 mg/kg in the data set on Rattus norvegicus [3] was found to be 95%.
In the same order, the values of `CNCc1cc(-c2ccccc2)n(S(=O)(=O)c2ccsc2)c1` are 1.1, 16 nM and 55%.
The like results for `CNCc1cc(-c2ccccc2)n(S(=O)(=O)c2cccs2)c1` were, in that order, 1.2, 51 nM and 69%.
Molecule `CNCc1cc(-c2ccccc2)n(S(=O)(=O)c2cccnc2)c1` showed a logD in data set [1] of 0.7. In addition, the IC50 in data set [2] amounted to 16 nM. Moreover, testing at 1 mg/kg in the data set with Rattus norvegicus [3] gave an inhibition in vivo of 85%.
The like results for `CNCc1cc(-c2ccccc2)n(S(=O)(=O)c2ccc(C#N)nc2)c1` were, in that order, 1.4, 110 nM and 17%.
The like results for `CNCc1cc(-c2ccccc2C(F)(F)F)n(S(=O)(=O)c2cccnc2)c1` were, in that order, 0.8, 75 nM and 92%.
For the molecule `CNCc1cc(-c2ccccc2)n(S(=O)(=O)c2ccccn2)c1`, the IC50 in data set [2] turned out to be 170 nM.
Consider `CNCc1cc(-c2ccccc2C#N)n(S(=O)(=O)c2cccnc2)c1`, for which, in data set [1], the logD is -0.2. The IC50 in data set [2] worked out at 230 nM. The same molecule came in with an inhibition in vivo at 1 mg/kg in the data set on Rattus norvegicus [3] of 68%.
Consider `CNCc1cc(-c2ccccc2F)n(S(=O)(=O)c2cccnc2)c1` [VONOPRAZAN FUMARATE], for which the inhibition result in the data set on Rattus norvegicus [6] is “Dose-dependent effect”. The molecule also registered a pH-dependent lipophilicity (logD) in [1] of 0.4. In [2], the IC50 turned out to be 19 nM. The inhibition result in the data set with Rattus norvegicus [7], with Canis familiaris [8] and with Canis familiaris [9] was “Active” in each case. Moreover, the inhibition in vivo at 1 mg/kg with Rattus norvegicus [3] was determined as 98%.
On to `CNCc1cc(-c2ccccc2CO)n(S(=O)(=O)c2cccnc2)c1`, for which the logD in [1] was -0.3. In data set [2], this molecule displayed an IC50 of 2200 nM.
`CNCc1cc(-c2ccccc2Cl)n(S(=O)(=O)c2cccnc2)c1` showed a pH-dependent lipophilicity (logD) in [1] of 0.7. Also, the IC50 in data set [2] is 17 nM. The inhibition in vivo at 1 mg/kg with Rattus norvegicus [3] worked out at 97%.

Broadly, the logD is the decadic logarithm of the distribution of all forms, ionised or not, between an organic phase and buffer at a given pH. The low end stands for a more hydrophilic compound, the high end for a more lipophilic compound. The term IC50 denotes the midpoint of a concentration-inhibition curve. For orientation: inhibition in vivo means how much of the control response was suppressed. A higher inhibition in vivo goes with a response far below the control.
